Laboratory results as given in ChEMBL document CHEMBL5728780, “Cyclic substituted imidazo[4,5-c]quinoline derivatives” (2021).

Target: Leucine-rich repeat serine/threonine-protein kinase 2 (Homo sapiens, UniProt Q5S007)
Test: LRRK2 Assay: LRRK2 kinase activity was measured using Lantha Screen technology from Invitrogen. GST-tagged truncated LRRK2 from Invitrogen (Cat #PV4874) was incubated with a fluorescein-labeled peptide substrate based upon ezrin/radixin/moesin (ERM), also known as LRRKtide (Invitrogen cat #PR8976A), in the presence of a dose response of compound. Upon completion, the assay was stopped and detected with a terbium labeled anti-phospho-ERM antibody (Invitrogen, cat #PR8975A). The assay was carried out under the following protocol: The compound dose response was prepared by diluting compound to a top concentration of 0.3 mM in 100% DMSO and serial diluted by half-log in DMSO to give an 11 point curve, 100× final assay concentration. Using Echo acoustic dispensing, 60 nL of compound was transferred to a low volume Corning 384-well assay plate. 3 μL of a working solution of substrate (200 nM LRRKtide, 2 mM ATP) prepared in assay buffer (50 mM HEPES, pH 7.5, 3 mM MgCl2, with 2 mM DTT and 0.01% Brij35 added fresh) was added to the 60 nL compound assay plate. The kinase reaction was started with 3 μL of a working solution of LRRK2 enzyme at a concentration of 4 μg/mL. The final reaction concentrations were 100 nM LRRKtide, 1 mM ATP, 2 μg/mL LRRK2 enzyme and a compound dose response with a top dose of 3 μM. […]

Chain of Leucine-rich repeat serine/threonine-protein kinase 2 (Q5S007 whole entry, looked up, the tested form may be a part): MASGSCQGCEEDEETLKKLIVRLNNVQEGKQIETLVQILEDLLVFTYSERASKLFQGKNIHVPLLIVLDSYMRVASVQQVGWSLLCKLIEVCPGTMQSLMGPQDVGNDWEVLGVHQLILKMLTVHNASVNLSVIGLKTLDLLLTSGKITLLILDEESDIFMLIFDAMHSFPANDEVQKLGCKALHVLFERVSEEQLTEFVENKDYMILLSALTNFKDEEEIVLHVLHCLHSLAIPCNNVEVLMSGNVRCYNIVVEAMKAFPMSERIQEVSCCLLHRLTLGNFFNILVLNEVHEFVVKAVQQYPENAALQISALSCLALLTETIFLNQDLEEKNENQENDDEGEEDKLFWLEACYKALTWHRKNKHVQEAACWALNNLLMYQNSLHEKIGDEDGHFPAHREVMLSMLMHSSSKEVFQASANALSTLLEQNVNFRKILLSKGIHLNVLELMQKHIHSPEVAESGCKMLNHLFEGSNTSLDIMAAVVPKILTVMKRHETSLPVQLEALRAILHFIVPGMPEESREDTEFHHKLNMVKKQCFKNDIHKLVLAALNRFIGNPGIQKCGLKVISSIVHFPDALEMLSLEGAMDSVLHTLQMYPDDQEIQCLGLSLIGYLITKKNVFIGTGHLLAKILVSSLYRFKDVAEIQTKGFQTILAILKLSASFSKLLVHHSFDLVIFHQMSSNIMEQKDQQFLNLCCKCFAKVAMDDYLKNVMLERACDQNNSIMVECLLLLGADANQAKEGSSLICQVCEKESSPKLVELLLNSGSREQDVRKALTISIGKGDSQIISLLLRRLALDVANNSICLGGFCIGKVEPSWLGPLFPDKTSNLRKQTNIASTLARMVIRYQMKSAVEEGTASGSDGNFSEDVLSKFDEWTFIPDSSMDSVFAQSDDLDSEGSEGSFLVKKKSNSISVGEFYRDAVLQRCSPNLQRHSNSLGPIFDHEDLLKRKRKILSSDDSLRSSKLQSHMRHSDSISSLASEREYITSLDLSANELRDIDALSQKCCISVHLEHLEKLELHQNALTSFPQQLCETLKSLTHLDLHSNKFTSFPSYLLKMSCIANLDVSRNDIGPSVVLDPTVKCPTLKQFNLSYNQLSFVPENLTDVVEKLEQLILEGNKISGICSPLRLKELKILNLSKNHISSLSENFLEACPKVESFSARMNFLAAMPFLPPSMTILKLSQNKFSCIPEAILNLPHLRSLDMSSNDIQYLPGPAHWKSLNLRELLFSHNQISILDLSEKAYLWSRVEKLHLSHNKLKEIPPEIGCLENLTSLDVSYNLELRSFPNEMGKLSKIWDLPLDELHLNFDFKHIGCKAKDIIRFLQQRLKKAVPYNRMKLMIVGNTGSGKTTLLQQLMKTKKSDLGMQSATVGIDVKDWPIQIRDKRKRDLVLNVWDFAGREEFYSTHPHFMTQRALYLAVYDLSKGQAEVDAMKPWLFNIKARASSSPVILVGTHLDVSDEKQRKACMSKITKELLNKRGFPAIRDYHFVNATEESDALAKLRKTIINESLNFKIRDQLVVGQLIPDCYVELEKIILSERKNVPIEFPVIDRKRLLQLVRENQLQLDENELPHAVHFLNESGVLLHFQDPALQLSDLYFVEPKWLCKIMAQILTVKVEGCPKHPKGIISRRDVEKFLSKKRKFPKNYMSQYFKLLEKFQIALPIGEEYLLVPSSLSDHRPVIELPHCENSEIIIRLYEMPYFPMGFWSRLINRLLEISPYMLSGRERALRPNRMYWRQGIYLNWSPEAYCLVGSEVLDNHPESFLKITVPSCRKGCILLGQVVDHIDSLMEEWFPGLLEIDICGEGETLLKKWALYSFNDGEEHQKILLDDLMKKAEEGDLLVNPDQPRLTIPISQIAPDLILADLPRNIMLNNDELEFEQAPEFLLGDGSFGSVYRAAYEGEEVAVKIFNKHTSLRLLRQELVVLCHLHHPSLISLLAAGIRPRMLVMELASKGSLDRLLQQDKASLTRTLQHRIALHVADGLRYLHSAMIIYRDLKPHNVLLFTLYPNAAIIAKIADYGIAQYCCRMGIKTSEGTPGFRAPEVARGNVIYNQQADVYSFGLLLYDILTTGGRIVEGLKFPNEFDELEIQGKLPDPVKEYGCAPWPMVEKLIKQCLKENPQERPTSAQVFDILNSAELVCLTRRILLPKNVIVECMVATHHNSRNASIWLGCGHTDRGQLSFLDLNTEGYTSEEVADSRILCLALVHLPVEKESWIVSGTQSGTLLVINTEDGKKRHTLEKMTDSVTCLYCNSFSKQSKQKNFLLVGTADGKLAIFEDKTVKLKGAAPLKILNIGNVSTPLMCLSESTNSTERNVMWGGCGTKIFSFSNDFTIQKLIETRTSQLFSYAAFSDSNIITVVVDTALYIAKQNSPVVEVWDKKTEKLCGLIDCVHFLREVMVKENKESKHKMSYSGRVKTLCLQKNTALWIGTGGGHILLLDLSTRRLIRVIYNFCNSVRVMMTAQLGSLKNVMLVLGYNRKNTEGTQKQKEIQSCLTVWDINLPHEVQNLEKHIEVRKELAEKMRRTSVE

## CN1CC[C@@H](n2c(C3CCC(F)C3)nc3cnc4ccc(F)cc4c32)C1 (stereo partly specified)
  IC50: > 2840 nM
